From patent US20020044948A1, “Methods and compositions for co-stimulation of immunological responses to peptide antigens” (priority 2000, published 2002)

Test system: E7 peptide-pulsed EL4 cells
Assay: Cytotoxic lymphocyte (4-hour 51Cr-release) assay on spleen cells of immunized mice
Type: in vivo, C57BL/6 mice
Settings: C57BL/6 (B6) (H-2b) mice
Description: A peptide antigen formulation for use within the present example was prepared in an emulsion by a two-syringe system containing 1:1 incomplete Freund's Adjuvant with 100 μg HPV16 E7 peptide (49-57), 20 μg PCLUS-6.1 helper epitope (see, U.S. Pat. No. 5,939,074; U.S. Pat. No. 5,976,541; U.S. Pat. No. 5,030,449; U.S. Pat. No. 5,081,226; U.S. Pat. No. 5,932,218; U.S. patent application Ser. No. 08/060988, filed May 14, 1993, corresponding to EP 0 710 572 Bi; WO 94/26785; and
U.S. patent application Ser. No. 09/455,076, each incorporated herein by reference), 50,000 U IL-2, 10X PBS and double distilled water. The B7-1 expressing DNA plasmid (400 μg) was prepared in 100 μl water. […]
Procedures to measure CTL activity are well known and are described elsewhere (see, e.g. Chen et al., Cell 71:1093-1102, 1992). […] Supernatants were harvested and counted using a gamma counter. The percentage of specific 51 Cr-release was calculated as follows: 100 X (experimental release−spontaneous release)/(maximum release−spontaneous release). Spontaneous release was determined from target cells incubated without effector cells; maximum release was determined from target cells incubated in the presence of 1% Triton X-100.

HPV16 E7 peptide(49-57): H2Db binding antigenic peptide of human papilloma virus 16 E7 protein, residues 49-57 (RAHYNIVTF; UniProt P03129 49-57, looked up, fragment)
Immunogenicity of the peptide (in words): immunogenic
